One molecule from patent US20230255904A1, “PHARMACEUTICAL COMPOSITION FOR PREVENTING OR TREATING CANCER COMPRISING NAPHTHOQUINONE-BASED COMPOUND AND IMMUNE CHECKPOINT INHIBITOR AS ACTIVE INGREDIENTS” (NADIANBIO LTD., priority 2020, published 2023) can be followed below.

The subject of assay [1] is MC38. Briefly: Tumor growth inhibition, animal model for colorectal cancer I (MC38). In kind it is in vivo, C57BL/6 mice. As to the method: (§1) All mice used in the experiments were raised in a sterile animal room with constant temperature (22° C. to 26° C.) and constant humidity (55% to 60%), acclimatized for 1 week while sufficiently supplying typical solid feed (Samtako Inc., Korea) and water, and then used. All experiments were conducted after obtaining approval from the Institutional Animal Care and Use Committee in accordance with the laboratory animal care and ethics regulations of the Institutional Animal Care and Use Committee of Wonkwang University.
(§2) 7-week-old BALB/c or C57BL/6 mice were used, and subcutaneously inoculated using a 1-mL insulin syringe within 30 minutes after mixing the mouse cancer cells with 0.2 mL of PBS.
(§3) After the cancer cell line was subcutaneously implanted, the administration of drugs was started when the size of the cancer reached 50 to 100 mm^3. The volumes (mm^3) of the tumors, which were generated after the inoculation, were measured at intervals of 3 days using a caliper, calculation was performed using the formula of […], and then the results thereof were compared.
(§4) In addition, sole administration or co-administration of respective drugs was performed according to the administration schedules listed in Tables 4 to 34 below, the tumor volumes were then measured according to the tumor proliferation assessment method described in Example 1.1, the tumor growth inhibition rates (TGI (O)=(Vc−Vt)/Vc×100(%); Vc: tumor volume of control, Vt tumor volume of experimental group) were calculated based the tumor volumes, and the results thereof are shown in the respective tables and FIGS. 1 to 31.

The test system of assay [2] is 4T1. As to the kind of experiment: Tumor growth inhibition, animal model for breast cancer I (4T1). In kind it is in vivo, BALB/c mice. As to the method: as §1, §2, §3, §4
In assay [3] the test system is EMT6. As to the kind of experiment: Tumor growth inhibition, animal model for breast cancer II (EMT6). The class given is in vivo, BALB/c mice. As to conditions: Experimental Example 14, Dunnione 40 mg/kg oral every day from 11th day, Anti-CTLA4 antibody 200 μg/head i.p. 2 times a week from 11th day, Lapatinib 100 mg/kg oral every day from 11th day. As to the method: as §1, §2
(§5) After the cancer cell line was subcutaneously implanted, the administration of drugs was started when the size of the cancer reached 50 to 100 mm^3. The volumes (mm^3) of the tumors, which were generated after the inoculation, were measured at intervals of 3 days using a caliper, calculation was performed using the formula of […], and then the results thereof were compared. […]

Assay [4] deals with RENCA. As to the kind of experiment: Tumor growth inhibition, animal model for renal cancer (RENCA). The class given is in vivo, BALB/c mice. As to the method:
as §1, §2, §3, §4

The subject of assay [5] is Hepa1-6. As to the kind of experiment: Tumor growth inhibition, animal model for liver cancer (Hepa1-6). In kind it is in vivo, C57BL/6 mice. As to conditions: Dunnione 40 mg/kg oral every day from 11th day, Anti-CTLA4 antibody 200 μg/head i.p. 2 times a week from 11th day. As to the method: as §1, §2, §5
The subject of assay [6] is LL/2. Briefly: Tumor growth inhibition, animal model for lung cancer II (LL/2). To be noted: Experimental Example 31; LL/2 lung cancer II; dunnione 40 mg/kg oral daily from 6th day; anti-PD-1 antibody 100 μg/head, carboplatin 25 mg/kg + pemetrexed 100 mg/kg intraperitoneal 2 times a week, 3 times in total. In kind it is in vivo, C57BL/6 mice. As to the method:
as §1, §2, §5

The test system of assay [7] is MC38. As to the kind of experiment: Survival rate analysis, animal model for colorectal cancer I (MC38). In kind it is in vivo, C57BL/6 mice. As to the method: After subcutaneous implantation of the cancer cell line, the survival rate was measured by recording the number of mice that died in each group every day. The measurement of survival rate was performed until the death of all mice in all groups or the death of all mice in the control. The average survival day was calculated by obtaining a survival curve using the survival rate.
After sole administration or co-administration of respective drugs was performed according to the administration schedules listed in Tables 36 and 37 below, the survival rates and the average survival days were calculated according to the survival rate analysis method described in Example 3.1, and the results thereof are respectively shown in Tables 36 and 37 and FIGS. 33 and 34.

For assay [8], the system named is spontaneous non-small cell lung cancer (Kras^LSL-G12D/+; Trp53^flox/flox mice). Briefly: Tumor proliferation in genetically engineered mouse models for spontaneous non-small cell lung cancer (Micro-CT). In kind it is in vivo. As to conditions: compared to before the drug administration, Micro-CT imaging; dunnione 40 mg/kg, carboplatin 25 mg/kg, paclitaxel 10 mg/kg, anti-PD-1 antibody 200 μg/head. The source says:
Models for spontaneous non-small cell lung cancer were induced by constructing conditional mutant mice (Kras^LSL-G12D/+; Trp53^flox/flox mice) having Ras activation and p53 variation through crossbreeding of conditional K-Ras activation variation-genetically engineered mice and conditional p53 variation-genetically engineered mice, and then performing intratracheal instillation of adenoviruses (Ad5-CMV-Cre; 2.5×10^7 PFU/infectious units), into which Cre genes were introduced, into the lung. […]
After sole administration or co-administration of respective drugs was performed according to the administration schedule listed in Table 38 below and FIG. 35, the tumor growth rate for each group compared to before the drug administration was measured at the 6th week through Micro-CT imaging, and the results thereof were summarized in Table 39.

[9] abbreviates: Experimental Example 34, dunnione 40 mg/kg oral daily from 6th day, anti-PD-1 antibody 200 μg/head intraperitoneal 2 times a week from 6th to 62nd day, 5-fluorouracil 50 mg/kg intraperitoneal once on 6th day.

As to `CC1OC2=C(C(=O)C(=O)c3ccccc32)C1(C)C` (stereo not drawn) [Dunnione, 2,3,3-trimethyl-2H-benzo[g][1]benzofuran-4,5-dione], the “TGI (%)” value in assay [1] (Experimental Example 1, Dunnione 40 mg/kg oral every day from 5th day, Anti-PD-1 antibody 200 μg/head i.p. at intervals of 3 days from 5th day, 4 times, Oxaliplatin 6 mg/kg + 5-Fluorouracil 50 mg/kg i.p. once on 5th day) was 8.1%; in assay [1] (Experimental Example 2, Dunnione 40 mg/kg oral every day from 5th day, Anti-CTLA4 antibody 200 μg/head i.p. at intervals of 3 days from 5th day, 4 times, Oxaliplatin 6 mg/kg + 5-Fluorouracil 50 mg/kg i.p. once on 5th day) it was 7.6%; in assay [1] (Experimental Example 3, Dunnione 40 mg/kg oral every day from 4th day, Anti-PD-1 antibody 100 ug/head + Anti-CTLA4 antibody 100 μg/head i.p. at intervals of 3 days from 4th day, 4 times, Oxaliplatin 6 mg/kg + 5-Fluorouracil 50 mg/kg i.p. once on 4th day), 5.3%; in assay [1] (Experimental Example 4, Dunnione 40 mg/kg oral every day from 7th day, Anti-LAG3 antibody 200 μg/head i.p. on 7th, 10th, 14th, 17th days, Oxaliplatin 6 mg/kg i.p. on 7th and 14th days) it was 13.1%; in assay [1] (Experimental Example 5, Dunnione 40 mg/kg oral every day from day of cancer cell implantation, Anti-PD-1 antibody 200 μg/head i.p. at intervals of 3 days from 7th day, 4 times), 28.5%; in assay [1] (Experimental Example 6, Dunnione 40 mg/kg oral every day from 7th day, Anti-PD-1 antibody 100 μg/head i.p. 2 times a week from 7th day, 4 times, Regorafenib 10 mg/kg oral every day from 7th day) it was 36.8%. Moreover, the “TGI (%)” value stood at 9.9% in assay [1] (Experimental Example 7, Dunnione 40 mg/kg oral every day from 6th day, Anti-PD-1 antibody 100 μg/head i.p. 2 times a week from 6th day, 2 times, Abemaciclib 75 mg/kg oral every day from 6th day); 8.9% in assay [2] (Experimental Example 10, Dunnione 40 mg/kg oral every day from 5th day, Anti-CTLA4 antibody 200 μg/head i.p. at intervals of 3 days from 5th day, 4 times, Mitoxantrone 6 mg/kg i.p. once on 5th day); 23.6% in assay [2] (Experimental Example 12, Dunnione 40 mg/kg oral every day from 7th day, Adriamycin 3.08 mg/kg + Cyclophosphamide 30.8 mg/kg + Paclitaxel 4.12 mg/kg i.p. at intervals of 1 week from 7th day, 3 times); 16.1% in assay [2] (Experimental Example 13, Dunnione 40 mg/kg oral every day from 7th day, Docetaxel 4.06 mg/kg + Adriamycin 2.7 mg/kg + Cyclophosphamide 27 mg/kg i.p. at intervals of 1 week from 7th day, 4 times); 9.7% in assay [3]; 7.8% in assay [4] (Experimental Example 15, Dunnione 40 mg/kg oral every day from 7th day, Anti-CTLA4 antibody 200 μg/head i.p. at intervals of 3 days from 7th day, 7 times, Everolimus 250 μg/kg oral every day from 7th day). For the same molecule, the “TGI (%)” value in assay [4] (Experimental Example 16, Dunnione 40 mg/kg oral every day from 7th day, Sorafenib 10 mg/kg oral every day from 7th day) stood at 14.5%; in assay [4] (Experimental Example 17, Dunnione 40 mg/kg oral every day from 7th day, Anti-CTLA4 antibody 200 μg/head i.p. at intervals of 3 days from 7th day, 3 times, Sorafenib 10 mg/kg oral every day from 7th day), 14.5%; in assay [4] (Experimental Example 18, Dunnione 40 mg/kg oral every day from 7th day, Anti-PD-1 antibody 100 μg/head i.p. 2 times a week from 7th day, 5 times, Everolimus 0.1 mg/kg oral every day from 7th day), 5.2%; in assay [4] (Experimental Example 19, Dunnione 40 mg/kg oral every day from 7th day, Anti-CTLA4 antibody 200 μg/head i.p. 2 times a week from 7th day, 5 times, Sorafenib 10 mg/kg oral every day from 7th day), 44.6%; in assay [4] (Experimental Example 20, Dunnione 40 mg/kg oral every day from 10th day, Anti-CTLA4 antibody 200 μg/head i.p. 2 times a week from 10th day, 5 times, Vistusertib 10 mg/kg oral every day from 10th day), 33.2%; in assay [5] (Experimental Example 28, 4 times, Sorafenib 10 mg/kg oral every day from 11th day), 29.1%. Also, the “TGI (%)” value in assay [5] (Experimental Example 29, 3 times, Everolimus 1 mg/kg oral every day from 11th day) is recorded as 22.4%; in assay [6], 23.5%. Also, in assay [7] (Experimental Example 33, dunnione 40 mg/kg oral daily from 4th day, anti-PD-1 antibody 100 μg/head + anti-CTLA4 antibody 100 μg/head intraperitoneal, oxaliplatin 6 mg/kg + 5-fluorouracil 50 mg/kg intraperitoneal at intervals of 15 days, 3 times), the “Survival rate (%) on 38th day after cancer implantation” value is recorded as 10%. In assay [7] (setting [9]), this molecule came in with an Average survival day of 28 days. The Total survival period in assay [7] (setting [9]) lay within 22 to 45. In addition, the “Tumor growth rate (fold) at 6th week” value in assay [8] came to 34.6 ± 54 fold.
